Values after ≈ are worked out from the molar mass of the structure shown. Structures can show the parent of a compound that is named as a salt. Where two headings read alike, the source gives them in different places.
Columns and labels:
Type in all cases: cell-based
[1] = system: E. coli #311 (MP); assay: MIC, agar dilution method; conditions: 18 hours at 35° C.
[2] = system: E. coli UBMS 89-2 Tet sens; assay: MIC, agar dilution method; conditions: 18 hours at 35° C.
[3] = system: E. coli UBMS 90-5 sens; assay: MIC, agar dilution method; conditions: 18 hours at 35° C.
[4] = system: S. aureus UBMS 90-1 Tet M; assay: microbe, parasite or virus in culture; conditions: 18 hours at 35° C.
[5] = system: S. aureus IVES 2943; assay: MIC, agar dilution method; conditions: S. aureus IVES 2943, 18 hours at 35° C.
[6] = system: S. aureus UBMS 88-7 Tet K; assay: microbe, parasite or virus in culture; conditions: 18 hours at 35° C.
[7] = system: S. aureus UBMS 88-5 Tet M; assay: microbe, parasite or virus in culture
[8] = system: S. aureus ROSE (MP); assay: MIC, agar dilution method; conditions: 18 hours at 35° C.
[9] = system: E. faecalis ATCC 29212; assay: MIC, agar dilution method; conditions: Enterococcus faecalis
[10] = system: E. coli J3272 Tet C; assay: microbe, parasite or virus in culture
[11] = system: S. aureus IVES 1 983; assay: MIC, agar dilution method; conditions: S. aureus IVES 1 983, 18 hours at 35° C.
[12] = system: E. coli UBMS 90-4 Tet M; assay: microbe, parasite or virus in culture; conditions: 18 hours at 35° C.
[13] = system: E. coli PRP1 Tet A; assay: microbe, parasite or virus in culture; conditions: 18 hours at 35° C.
[14] = system: E. coli MC 4100 Tet sens.; assay: MIC, agar dilution method; conditions: Escherichia coli, 18 hours at 35° C., read-out: MIC
[15] = system: E. coli J2175; assay: MIC, agar dilution method; conditions: 18 hours at 35° C.
[16] = system: E. coli UBMS 89-1 Tet M; assay: microbe, parasite or virus in culture; conditions: 18 hours at 35° C.
[17] = system: X. maltophilia NEMC 87210; assay: MIC, agar dilution method; conditions: Stenotrophomonas maltophilia
[18] = system: Ps. acruginosa ATCC 27853; assay: MIC, agar dilution method; conditions: Ps. acruginosa ATCC 27853; 18 hours at 35° C.; read-out: MIC
[19] = system: S. aureus UBMS 90-2 Tet M; assay: microbe, parasite or virus in culture; conditions: 18 hours at 35° C.
[20] = system: S. mariescens FPOR 8733; assay: MIC, agar dilution method; conditions: 18 hours at 35° C.
[21] = system: E. coli MC 4100 TNIOC Tet B; assay: microbe, parasite or virus in culture; conditions: 18 hours at 35° C.
[22] = system: E. coli BAJ9003 IMP MUT; assay: microbe, parasite or virus in culture; conditions: 18 hours at 35° C.
[23] = system: S. hemolyticus AVHAH 88-3; assay: MIC, agar dilution method; conditions: 18 hours at 35° C.
[24] = system: E. coli UBMS 88-1 Tet B; assay: microbe, parasite or virus in culture; conditions: 18 hours at 35° C.
[25] = system: E. coli ATCC 25922; assay: MIC, agar dilution method
[26] = system: Enterococcus 12201; assay: MIC, agar dilution method; conditions: 18 hours at 35° C.
[27] = system: S. aureus NEMC 8769; assay: MIC, agar dilution method; conditions: Staphylococcus aureus, NEMC8769, 18 h
[28] = system: S. aureus UBMS 88-4; assay: MIC, agar dilution method
[29] = system: E. coli J3272 Tet D; assay: microbe, parasite or virus in culture
[30] = system: S. aureus UBMS 90-3; assay: MIC, agar dilution method
[31] = system: S. aureus SMITH (MP); assay: MIC, agar dilution method; conditions: 18 hours at 35° C.
[32] = system: S. aureus ATCC 29213; assay: MIC, agar dilution method; conditions: 18 hours at 35° C.
[33] = Escherichia coli, read-out: MIC

## CN(C)CC(=O)Nc1c(Cl)cc2c(c1O)C(=O)C1=C(O)[C@]3(O)C(=O)C(C(N)=O)=C(O)[C@@H](N(C)C)C3CC1C2 (stereo partly drawn) [C, [4S-(4α,12aα)]-8-Chloro-4-(dimethylamino)-9-[[(dimethylamino)acetyl]amino]-1,4,4a,5,5a,6,11,12a-octahydro-3,10,12,12a-tetrahydroxy-1,11-dioxo-2-naphthacenecarboxamide]
[1]
  MIC: 0.5 µg/mL (≈ 0.911 µM)
[2]
  MIC: 1 µg/mL (≈ 1.82 µM)
[3]
  MIC: 1 µg/mL (≈ 1.82 µM)
[4]
  MIC: 4 µg/mL (≈ 7.29 µM)
[5]
  MIC: 4 µg/mL (≈ 7.29 µM)
[6]
  MIC: 0.25 µg/mL (≈ 0.455 µM)
[7]; S. aureus UBMS 88-5 Tet M, 18 hours at 35° C.
  MIC: 2 µg/mL (≈ 3.64 µM)
[8]
  MIC: 1 µg/mL (≈ 1.82 µM)
[9]; ATCC29212, 18 h, 18 hours at 35° C.
  MIC: 0.5 µg/mL (≈ 0.911 µM)
[10]; E. coli J3272 Tet C, 18 hours at 35° C.
  MIC: 8 µg/mL (≈ 14.6 µM)
[11]
  MIC: 4 µg/mL (≈ 7.29 µM)
[12]
  MIC: 0.5 µg/mL (≈ 0.911 µM)
[13]
  MIC: 8 µg/mL (≈ 14.6 µM)
[14]
  MIC: 0.25 µg/mL (≈ 0.455 µM)
[15]
  MIC: 1 µg/mL (≈ 1.82 µM)
[16]
  MIC: 0.25 µg/mL (≈ 0.455 µM)
[17]; NEMC87210, 18 hours at 35° C., read-out: MIC
  MIC: 0.05 µg/mL (≈ 0.0911 µM)
[18]
  MIC: > 32 µg/mL
[19]
  MIC: 1 µg/mL (≈ 1.82 µM)
[20]
  MIC: 8 µg/mL (≈ 14.6 µM)
[21]
  MIC: 1 µg/mL (≈ 1.82 µM)
[22]
  MIC: 0.12 µg/mL (≈ 0.219 µM)
[23]
  MIC: 0.5 µg/mL (≈ 0.911 µM)
[24]
  MIC: 1 µg/mL (≈ 1.82 µM)
[25]; 18 hours at 35° C.
  MIC: 0.5 µg/mL (≈ 0.911 µM)
[26]
  MIC: 8 µg/mL (≈ 14.6 µM)
[27]
  MIC: 0.03 µg/mL (≈ 0.0546 µM)
[28]; 18 hours at 35° C.
  MIC: 0.12 µg/mL (≈ 0.219 µM)
[29]; E. coli J3272 Tet D, 18 hours at 35° C.
  MIC: 0.5 µg/mL (≈ 0.911 µM)
[30]; S. aureus UBMS 90-3, 18 hours at 35° C.
  MIC: 0.12 µg/mL (≈ 0.219 µM)
[31]
  MIC: 0.12 µg/mL (≈ 0.219 µM)
[32]
  MIC: 0.25 µg/mL (≈ 0.455 µM)

## CN(C)[C@@H]1C(O)=C(C(N)=O)C(=O)[C@@]2(O)C(O)=C3C(=O)c4c(cc(Cl)c(NC(=O)CN5CCCC5)c4O)CC3CC12 (stereo partly drawn) [E, [7S-(7α,10aα)]-N-[9-(Aminocarbonyl)-3-chloro-7-(dimethylamino)-5,5a,6,6a,7, 10,10a,12-octahydro-1,2,10a,11-tetrahydroxy-10,12-dioxo-2-naphthacenyl]-1-pyrrolidineacetamide dihydrochloride]
[1]; [33]
  MIC: 0.25 µg/mL
[2]; Escherichia coli, UBMS892TETSENS, 18 h, read-out: MIC
  MIC: 1 µg/mL
[3]; Escherichia coli, UBMS905SENS, read-out: MIC
  MIC: 1 µg/mL
[4]; Staphylococcus aureus, UBMS901TETM, 18 h
  MIC: 0.25 µg/mL
[5]; Staphylococcus aureus, IVES2943, read-out: MIC
  MIC: 4 µg/mL
[6]; Staphylococcus aureus, UBMS887TETK, 18 h
  MIC: 2 µg/mL
[7]; Staphylococcus aureus, UBMS885TETM, 18 h
  MIC: 0.25 µg/mL
[8]; Staphylococcus aureus, 18 h
  MIC: 8 µg/mL
[9]; ATCC29212, 18 hours at 35° C., read-out: MIC
  MIC: 0.12 µg/mL
[10]; Escherichia coli, J3272TETC, 18 h
  MIC: 1 µg/mL
[11]; Staphylococcus aureus, IVES1983, read-out: MIC
  MIC: 4 µg/mL
[12]; Escherichia coli, UBMS904TETM, 18 h
  MIC: 1 µg/mL
[13]; Escherichia coli, PRP1TETA, 18 h
  MIC: 2 µg/mL
[14]
  MIC: 0.25 µg/mL
[15]; [33]
  MIC: 1 µg/mL
[16]; Escherichia coli, UBMS891TETM, 18 h
  MIC: 0.25 µg/mL
[17]; NEMC87210, 18 h, 18 hours at 35° C.
  MIC: 1 µg/mL
[18]
  MIC: 32 µg/mL
[19]; Staphylococcus aureus, UBMS902TETM, 18 h
  MIC: 0.25 µg/mL
[20]; 18 h
  MIC: 8 µg/mL
[21]; Escherichia coli, 18 h
  MIC: 1 µg/mL
[22]; Escherichia coli, BAJ9003IMPMUT, 18 h
  MIC: 0.12 µg/mL
[23]; Streptococcus pyogenes, AVHAH883, 18 h
  MIC: 2 µg/mL
[24]; Escherichia coli, UBMS881TETB, 18 h
  MIC: 1 µg/mL
[25]; Escherichia coli, ATCC25922, 18 hours at 35° C., read-out: MIC
  MIC: 0.25 µg/mL
[26]; Enterococcus, 12201, 18 h
  MIC: 0.25 µg/mL
[27]
  MIC: 0.25 µg/mL
[28]; Staphylococcus aureus, UBMS884, 18 hours at 35° C., read-out: MIC
  MIC: 0.25 µg/mL
[29]; Escherichia coli, J3272TETD, 18 h
  MIC: 0.25 µg/mL
[30]; Staphylococcus aureus, UBMS903, 18 h
  MIC: 0.12 µg/mL
[31]; Staphylococcus aureus, 18 h
  MIC: 0.25 µg/mL
[32]; Staphylococcus aureus, ATCC29213, 18 h
  MIC: 0.25 µg/mL

From patent publication US5495032A, “Process for producing 7-(substituted)-8-(substituted-9-[(substituted glycyl)amido]-6-demethyl-6-deoxytetracyclines” (priority 1994, dated 1996)
